# In US8039504B2 (priority 2003, dated 2011):
# Columns and labels:
# [1] = physchem
# [2] = test system: monkeypox virus (Zaire (V79-1-005-scab)); assay: microbe, parasite or virus in culture; type: cell-based; conditions: read-out: Monkeypox EC50
# [3] = test system: Vaccinia virus (NYCBH); assay: microbe, parasite or virus in culture; type: cell-based; conditions: Orthopoxvirus vaccinia, Vero, 72 h, read-out: Vaccinia EC50
# [4] = test system: wild type cowpox virus; assay: microbe, parasite or virus in culture; type: cell-based; conditions: read-out: Cowpox EC50
# [5] = test system: camelpox; assay: microbe, parasite or virus in culture; type: cell-based; conditions: read-out: Camelpox EC50
smiles,measurement,setting,value
"O=C(NN1C(=O)[C@@H]2C3C=CC(C4CC43)[C@@H]2C1=O)c1ccc(C(F)(F)F)cc1 (stereo partly shown) [Example 1, 4-Trifluoromethyl-N-(3,3a,4,4a,5,5a,6,6a,- octahydro-1,3-dioxo-4,6-ethenocycloprop[f]isoindol-2(1H)-yl)-benzamide]",solubility,"[1]; aqueous with cosolvent or surfactant or cyclodextrin, ST-246 Solubility",68.7 µg/mL
same,solubility,"[1]; organic solvent or mixture, ST-246 Solubility",60800 µg/mL
same,solubility,"[1]; organic solvent or mixture, Solubility in organic solvents",60000 µg/mL
same,solubility,"[1]; pH 6.8, aqueous buffer, ST-246 Solubility",7 µg/mL
same,solubility,"[1]; simulated gastric fluid, ST-246 Solubility",37.5 µg/mL
same,solubility,"[1]; water, ST-246 Solubility",26 µg/mL
same,EC50,[2],< 0.5 µM
same,EC50,[3],< 0.5 µM
same,EC50,[4],< 0.5 µM
same,EC50,[5],< 0.5 µM
